{
  "source": "paper PMC4608732",
  "about": "“Phosphorylation and Internalization of Lysophosphatidic Acid Receptors LPA1, LPA2, and LPA3” (PLoS ONE, 2015)",
  "key": {"[1]": {"biological_target": "T1, LPA1 receptor (Mus musculus, UniProt P61793)", "T1 construct": "expressed in transfected cells", "T1 sequence (P61793 whole entry)": "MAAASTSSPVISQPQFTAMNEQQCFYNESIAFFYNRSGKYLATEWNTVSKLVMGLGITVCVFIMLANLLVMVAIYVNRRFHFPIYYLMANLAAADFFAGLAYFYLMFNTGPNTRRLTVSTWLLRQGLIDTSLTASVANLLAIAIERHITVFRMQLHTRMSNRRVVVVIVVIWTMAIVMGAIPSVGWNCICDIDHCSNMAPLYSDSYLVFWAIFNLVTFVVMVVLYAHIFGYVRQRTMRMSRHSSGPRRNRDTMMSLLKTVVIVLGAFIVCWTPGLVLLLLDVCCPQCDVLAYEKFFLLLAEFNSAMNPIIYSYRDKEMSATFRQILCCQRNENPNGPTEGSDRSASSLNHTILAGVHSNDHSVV", "test": "LPA1 receptor phosphorylation ([32P]Pi labeling, immunoprecipitation)", "assay_type": "cell-based", "protocol": "(§1) The procedure was very similar to that previously described to study LPA1 receptor phosphorylation. In brief, cells were incubated in phosphate-free Dulbecco’s modified Eagle’s medium containing 100 μCi/ml [^32P]Pi for 3 h at 37°C. LPA1- and LPA2-expressing cells were cultured in 6 well plates, whereas those expressing LPA3 receptors were cultured in 10 cm dishes. Labeled cells were stimulated with the agents tested and then washed twice with ice-cold phosphate buffered saline and solubilized in buffer containing 10 mM Tris, 150 mM NaCl, 1% sodium cholate, 1% Nonident P40, protease and phosphatase inhibitors, pH 7.4 [11, 12, 14]. The lysates were incubated overnight with protein A-agarose and anti-GFP serum with constant agitation at 4°C. Samples were washed and the pellets containing the immunocomplexes were solubilized in Laemmli’s sample buffer containing 5% β-mercaptoethanol. Proteins were separated using 10% SDS-PAGE and electrotransferred onto polyvinyliden fluoride membranes. Receptor phosphorylation was analyzed with a Molecular Dynamics Typhoon PhosphorImager and the ImageJ software (http://rsb.info.nih.gov/ij/)."}, "[2]": {"biological_target": "T2, LPA2 receptor (Homo sapiens, UniProt Q9HBW0)", "T2 sequence (Q9HBW0 whole entry)": "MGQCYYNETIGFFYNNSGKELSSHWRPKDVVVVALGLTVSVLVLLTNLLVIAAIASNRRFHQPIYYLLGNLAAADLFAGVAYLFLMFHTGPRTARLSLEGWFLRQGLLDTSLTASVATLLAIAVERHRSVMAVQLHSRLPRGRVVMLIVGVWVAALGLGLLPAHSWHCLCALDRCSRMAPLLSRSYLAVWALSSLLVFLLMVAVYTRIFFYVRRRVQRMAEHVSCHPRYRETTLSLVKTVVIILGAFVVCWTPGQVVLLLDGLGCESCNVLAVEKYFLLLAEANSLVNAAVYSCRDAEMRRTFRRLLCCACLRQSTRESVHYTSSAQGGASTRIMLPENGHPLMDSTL", "test": "Heterologous (PMA) / homologous (LPA) desensitization of LPA-induced calcium response, LPA2 cells", "assay_type": "cell-based", "protocol": "(§2) This procedure has been described previously. Briefly, cells were loaded with 2.5 μM Fura-2 AM in Krebs–Ringer–Hepes containing 0.05% bovine serum albumin (pH 7.4) for 1 h at 37°C and then washed to eliminate unincorporated indicator. Determinations were carried in an AMINCO-Bowman Series 2 luminescence spectrometer, employing 340 and 380 nm excitation wavelengths and an emission wavelength of 510 nm; chopper interval was 0.5 sec. The intracellular calcium concentration was calculated as described by Grynkiewicz et al.. In the experiments where prolonged incubation was required (resensitization studies), cells were stimulated, washed, and the incubation was continued in the presence of Fura-2 AM, to avoid dye depletion.\n(§3) Agonists-mediated decreases occurred in a concentration-dependent fashion, with a maximum at the concentration of ~ 100 nM. […] It is worth noticing that the shift in the curves was more pronounced in LPA1- or LPA3-expressing cells, than in those that expressed the LPA2 subtype.\n(§4) Plotted are the increases in calcium as the percentage of that obtained in cells preincubated without any agent as mean ± S. E. M. of 6 experiments using different cell preparations."}, "[3]": {"biological_target": "T3, LPA3 receptor (Homo sapiens, UniProt Q9UBY5)", "T3 sequence (Q9UBY5 1-353)": "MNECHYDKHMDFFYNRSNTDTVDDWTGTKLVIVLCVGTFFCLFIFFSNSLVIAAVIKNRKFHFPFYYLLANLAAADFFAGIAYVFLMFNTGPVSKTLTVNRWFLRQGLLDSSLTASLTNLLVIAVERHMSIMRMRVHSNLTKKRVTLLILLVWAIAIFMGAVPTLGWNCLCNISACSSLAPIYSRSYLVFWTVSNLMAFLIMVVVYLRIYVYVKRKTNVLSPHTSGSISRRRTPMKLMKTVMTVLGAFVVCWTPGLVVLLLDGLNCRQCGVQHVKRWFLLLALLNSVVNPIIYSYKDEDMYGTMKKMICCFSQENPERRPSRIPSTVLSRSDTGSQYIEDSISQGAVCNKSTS", "test": "LPA3 receptor internalization, confocal imaging", "assay_type": "cell-based", "conditions": "1 μM agent, 30 or 60 min, LPA3 cells", "protocol": "(§5) Cells were seeded at approximately 30% confluence onto glass-bottomed Petri dishes and cultured for 3 h at 37°C in media containing 1% serum. After treatment, cells were washed three times with phosphate buffered saline and fixed with 4% paraformaldehyde in 0.1 M phosphate buffer for 20 min at room temperature; samples were then washed three additional times with phosphate buffered saline. The fluorescent images were acquired with an Olympus Fluoview FV10 confocal microscope with a water-immersion objective (60X). To determine receptor internalization, the plasma membrane was delineated utilizing the differential interference contrast imaging, and fluorescence in this region was quantified employing the ImageJ software. At least 5 or 6 images of different cultures were taken for each condition. Data were normalized as follows: for each experiment, fluorescence (arbitrary units) at the plasma membrane of baseline samples were pooled and the average was considered as 100%."}, "[4]": {"biological_target": "T1, LPA1 receptor", "test": "LPA1 receptor internalization, confocal imaging", "assay_type": "cell-based", "conditions": "1 μM agent, 30 or 60 min, LPA1 cells", "protocol": "as §5"}, "[5]": {"biological_target": "T3, LPA3 receptor", "test": "LPA3 receptor phosphorylation ([32P]Pi labeling, immunoprecipitation)", "assay_type": "cell-based"}, "[6]": {"biological_target": "T2, LPA2 receptor", "test": "LPA2 receptor internalization, confocal imaging", "assay_type": "cell-based", "conditions": "1 μM agent, 30 or 60 min, LPA2 cells", "protocol": "as §5"}, "[7]": {"biological_target": "T1, LPA1 receptor", "test": "Heterologous (PMA) / homologous (LPA) desensitization of LPA-induced calcium response, LPA1 cells", "assay_type": "cell-based", "protocol": "as §2, §3, §4"}, "[8]": {"biological_target": "T3, LPA3 receptor", "test": "Heterologous (PMA) / homologous (LPA) desensitization of LPA-induced calcium response, LPA3 cells", "assay_type": "cell-based", "protocol": "as §2, §3, §4"}, "[9]": {"biological_target": "T2, LPA2 receptor", "test": "LPA2 receptor phosphorylation ([32P]Pi labeling, immunoprecipitation)", "assay_type": "cell-based", "protocol": "as §1"}, "[10]": {"tested_on": "ERK 1/2", "test": "ERK 1/2 phosphorylation (Western blotting) in C9 cells overexpressing LPA1-3", "assay_type": "cell-based, rat", "conditions": "100 ng/ml EGF, 5 min, cells overexpressing LPA1-3", "protocol": "Cells were cultured to near confluence in 6 well plates and stimulated with the agents tested for the times indicated. Total cellular extracts were obtained by lysing the cells in Laemmli’s sample buffer containing 5% β-mercaptoethanol. The cell extracts were subject to 10% SDS-PAGE and transferred to nitrocellulose membranes. Membranes from samples obtained in parallel were incubated overnight at 4°C, with anti-pERK 1/2 (1:2000) or anti ERK 1/2 (1:2000). The membranes were washed and incubated for 1 h at room temperature with a horseradish peroxidase-conjugated secondary antibody (1:10,000) for enhanced chemiluminescence detection."}, "[11]": {"conditions": "read-out: IC50, inhibition of LPA-induced calcium response (heterologous desensitization)"}},
  "data": [
    {"compound": "CCCCCCCCCCCCCC(=O)O[C@@H]1[C@@H](C)[C@@]2(O)[C@@H](C=C(CO)C[C@]3(O)C(=O)C(C)=C[C@@H]23)[C@@H]2C(C)(C)[C@]12OC(C)=O", "note": "[PMA, phorbol myristate acetate]", "values": [
      {"measurement": "EC50", "setting": "[1]", "value": "3 to 10", "unit": "nM"},
      {"measurement": "time to maximum receptor phosphorylation", "setting": "[1]; 1 μM agent, LPA1 cells", "value": "≤ 5", "unit": "min"},
      {"measurement": "concentration at which receptor phosphorylation saturates", "setting": "[1]; 15 min incubation, LPA1-overexpressing cells", "value": 100, "unit": "nM"},
      {"measurement": "remaining calcium response to LPA", "setting": "[2]; LPA2 cells, highest PMA concentration tested", "value": "30–40%"},
      {"measurement": "IC50", "setting": "[2]; [11]", "value": "3 to 10", "unit": "nM"},
      {"measurement": "receptor internalization (fluorescence at the plasma membrane)", "setting": "[3]", "value": "markedly decreasing fluorescence at the plasma membrane level"},
      {"measurement": "receptor internalization (fluorescence at the plasma membrane)", "setting": "[4]", "value": "markedly decreasing fluorescence at the plasma membrane level"},
      {"measurement": "EC50", "setting": "[5]", "value": "3 to 10", "unit": "nM"},
      {"measurement": "time to maximum receptor phosphorylation", "setting": "[5]; 1 μM agent, LPA3 cells", "value": "≤ 5", "unit": "min"},
      {"measurement": "concentration at which receptor phosphorylation saturates", "setting": "[5]; 15 min incubation, LPA3-overexpressing cells", "value": 100, "unit": "nM"},
      {"measurement": "receptor internalization (decrease in fluorescence at the plasma membrane, compared with other subtypes)", "setting": "[6]", "value": "much less intense"},
      {"measurement": "IC50", "setting": "[7]; [11]", "value": "1 to 3", "unit": "nM"},
      {"measurement": "IC50", "setting": "[8]; [11]", "value": "3 to 10", "unit": "nM"},
      {"measurement": "time to maximum receptor phosphorylation", "setting": "[9]; 1 μM agent, LPA2 cells", "value": "≤ 5", "unit": "min"},
      {"measurement": "concentration-response curve, receptor phosphorylation", "setting": "[9]; 15 min incubation, LPA2-overexpressing cells, shift to higher concentrations", "value": "no clear saturation was obtained"}
    ]},
    {"compound": "CN(C)CCCn1cc(C2=C(c3c[nH]c4ccccc34)C(=O)NC2=O)c2ccccc21", "note": "[bisindolylmaleimide I, Bisindolylmaleimide I]", "values": [
      {"measurement": "effect on LPA-induced desensitization", "setting": "[2]; 15 min preincubation with inhibitor, 1 μM LPA, LPA2 cells", "value": "unable to alter LPA-induced desensitization"},
      {"measurement": "effect on PMA-induced desensitization", "setting": "[2]; 15 min preincubation with inhibitor, 1 μM PMA, LPA2 cells", "value": "markedly diminished PMA-induced desensitization"},
      {"measurement": "effect on LPA-induced desensitization", "setting": "[7]; 15 min preincubation with inhibitor, 1 μM LPA, LPA1 cells", "value": "unable to alter LPA-induced desensitization"},
      {"measurement": "effect on PMA-induced desensitization", "setting": "[7]; 15 min preincubation with inhibitor, 1 μM PMA, LPA1 cells", "value": "markedly diminished PMA-induced desensitization"},
      {"measurement": "effect on LPA-induced desensitization", "setting": "[8]; 15 min preincubation with inhibitor, 1 μM LPA, LPA3 cells", "value": "unable to alter LPA-induced desensitization"},
      {"measurement": "effect on PMA-induced desensitization", "setting": "[8]; 15 min preincubation with inhibitor, 1 μM PMA, LPA3 cells", "value": "markedly diminished PMA-induced desensitization"}
    ]},
    {"compound": "EGF: epidermal growth factor, obtained from Preprotech (NSDSECPLSHDGYCLHDGVCMYIEALDKYACNCVVGYIGERCQYRDLKWWELR; UniProt P01133 971-1023, looked up)", "values": [
      {"measurement": "increase in ERK phosphorylation", "setting": "[10]", "value": "~ 4 fold"}
    ]}
  ]
}
